Experiment [1] relates to human MiaPaCa-2 pancreatic xenografts. The experiment can be described thus: MiaPaCa-2 xenograft model, Example 88 alone and in combination with erlotinib. It is filed as in vivo, athymic mice. As to conditions: for Median Tumor Size: Example 88 10 mg/kg i.p. b.i.d. 10 days, erlotinib 50 mg/kg p.o. daily 14 days; for complete responders (CR, 100% reduction in tumor size) / partial responders (PR, greater than 50% reduction in tumor size): day 42, out of 8 mice, 10 mg/kg. The procedure:
(§1) Compounds were dosed on the following schedules:
2) Erlotinib was dosed 50 mg/kg, p.o., daily for 14 days (days 1-14).
Mice-bearing sc tumors were randomized, and treatment groups consisted of 8 mice.

The subject of experiment [2] is HCT-116, BxPC-3, A549, BT-549, LNCaP, MIA Paca-2 tumor cells. The experiment can be described thus: In vitro cell proliferation (alamarBlue). As to conditions: Homo sapiens; 96 hr incubation; read-out: IC50 against at least one of HCT-116, MIA Paca-2, or LNCaP cells. It is filed as cell-based. The procedure: Compounds are tested for their ability to inhibit cell proliferation and viability. The metabolic reduction of alamarBlue™ (Biosource cat. no. DAL1100) was used to measure cell viability.
The anti-proliferative activity of compounds is studied using a panel of tumor cells: HCT-116 (human colorectal carcinoma cell line), BxPC-3 (human pancreatic adenocarcinoma cell line), A549 (human lung carcinoma cell line), BT-549 (human breast carcinoma cell line), LNCaP (human prostate carcinoma cell line), and MIA Paca-2 (human pancreatic carcinoma cell line). These adherent cells (1,000-20,000) are plated in complete media (RPMI-1640, DMEM, F12K, or McCoy's 5A) containing 10% fetal bovine serum (Gibco) in tissue culture treated 96-well plates (Costar) and placed in a humidified incubator at 37° C., […], 5% CO2 for 18-24 hr. Media was removed and replaced with 90 μL fresh media. Compound is diluted in media containing 3% DMSO and added to cells. Background (C^−) relative fluorescent units are determined by incubating alamarBlue™ reagent for 6 hr using untreated cells plated 18 hr earlier. Untreated cells or cells containing compound are incubated for 96 hr. During the last 6 hr of the incubation period, alamarBlue™ reagent (10 μL) was added to each well and incubated in a humidified incubator at 37° C., […], 5% CO2.
AlamarBlue™ reduction is measured in a fluorescence plate reader with instrument settings for excitation at 530 nm and emission at 590 nm. […] Compound IC50 values are determined from % inhibition versus compound concentration curve plots using GraphPad Prism™ according to the 4 parameter logistic equation Y=Bottom+(Top−Bottom)/1+10^((Log EC50−X)*HillSlope)).
In general terms: Alamar Blue is a resazurin reagent that responds to reducing activity.

Experiment [3] relates to human MiaPaCa-2 pancreatic xenografts. The experiment can be described thus: MiaPaCa-2 xenograft model, Example 88 alone and in combination with gemcitabine. It is filed as in vivo, athymic mice. The note with it: for Median Tumor Size: Example 88 10 mg/kg i.p. b.i.d. 10 days, gemcitabine 120 mg/kg i.p. q3d×4. The procedure:
as §1
2) Gemcitabine was dosed 120 mg/kg, i.p., q3d×4 (days 1, 4, 7, 10).
Drug treatment started when mean tumor sizes reached approximately 120 mg (day 8). Mice-bearing sc tumors were randomized, and treatment groups consisted of 8 mice. The median tumor size for each group at various points in the study are listed below in Table B.

Where [4] appears, read: day 8 of study (treatment start).
Setting [5] is: day 42, out of 8 mice, Example 88 10 mg/kg, gemcitabine 120 mg/kg.

A value given as a limit tells only on which side of the number the result lay.

In the case of `C#Cc1cccc(Nc2ncnc3cc(OCCOC)c(OCCOC)cc23)c1` [Erlotinib, erlotinib, reference compound], the “Median Tumor Size” value in experiment [1] (setting [4]) is 120 mg; in experiment [1] (day 10 of study), 144 mg; in experiment [1] (day 13 of study) it was 192 mg; in experiment [1] (day 16 of study) it was 267 mg; in experiment [1] (day 20 of study), 363 mg; in experiment [1] (day 23 of study), 507 mg. Further, the “Median Tumor Size” value in experiment [1] (day 27 of study) is listed as 700 mg; in experiment [1] (day 30 of study) it was 908 mg; in experiment [1] (day 34 of study), 1224 mg; in experiment [1] (day 37 of study), 1296 mg; in experiment [1] (day 42 of study) it was 1368 mg. For the same molecule, the “inhibition of tumor growth relative to vehicle-treated tumors” value in experiment [1] (day 23, Example 88 10 mg/kg, erlotinib 50 mg/kg) is listed as 16%. Further, the “complete responders (CR, 100% reduction in tumor size)” value in experiment [1] (erlotinib 50 mg/kg) is listed as 0/8. Besides, in experiment [1] (erlotinib 50 mg/kg), the “partial responders (PR, greater than 50% reduction in tumor size)” value is 0/8.
The term IC50 denotes the concentration that gives 50% inhibition. For the molecule `CC(C)c1ccccc1Nc1nc2cc(C(=O)Nc3ccc4cn[nH]c4c3)ccc2[nH]1` [Example 27, 2-(2-Isopropylphenylamino)-3H-benzimidazole-5-carboxylic acid (1H-indazol-6-yl)-amide], in experiment [2], the IC50 was ≤ 3000 nM.
`O=C(Nc1ccc2cn[nH]c2c1)c1ccc2[nH]c(Nc3ccccc3C(F)(F)F)nc2c1` [Example 35, 2-(2-Trifluoromethylphenylamino)-3H-benzimidazole-5-carboxylic acid (1H-indazol-6-yl)-amide]: the half-maximal inhibitory concentration (IC50) in experiment [2] was ≤ 3000 nM.
On the same count and under the same terms, for `Cc1cccnc1Nc1nc2cc(C(=O)Nc3ccc4cn[nH]c4c3)ccc2[nH]1` [Example 36, 2-(3-Methylpyridin-2-ylamino)-3H-benzimidazole-5-carboxylic acid(1H-indazol-6-yl)-amide] the value was ≤ 3000 nM; for `CC(C)c1ccccc1Nc1nc2cc(C(=O)Nc3ccc4cn[nH]c4c3)c(N3CCN(C)CC3)cc2[nH]1` [Example 48, 2-(2-Isopropylphenylamino)-6-(4-methyl-piperazin-1-yl)-1H-benzimidazole-5-carboxylic acid (1H-indazol-6-yl)-amide], ≤ 3000 nM.
The same measure, in the same setting: the value for `CN1CCN(c2cc3[nH]c(Nc4ccccc4C(F)(F)F)nc3cc2C(=O)Nc2ccc3cn[nH]c3c2)CC1` [Example 50, 6-(4-Methylpiperazin-1-yl)-2-(2-trifluoromethyl-phenylamino)-1H-benzimidazole-5-carboxylic acid (1H-indazol-6-yl)-amide] was ≤ 3000 nM; that for `O=C(Nc1ccc2cn[nH]c2c1)c1cc2nc(Nc3ccccc3C(F)(F)F)[nH]c2cc1N1CCOCC1` [Example 54, 6-Morpholin-4-yl-2-(2-trifluoromethylphenylamino)-1H-benzimidazole-5-carboxylic acid (1H-indazol-6-yl)-amide] was ≤ 3000 nM.
The same measure, in the same setting: the value for `O=C(Nc1ccc2cn[nH]c2c1)c1cc2nc(Nc3ccccc3C(F)(F)F)[nH]c2cc1N1CCCCC1` [Example 57, 6-Piperidin-1-yl-2-(2-trifluoromethyl-phenylamino)-1H-benzimidazole-5-carboxylic acid (1H-indazol-6-yl)-amide] was ≤ 3000 nM; that for `Cc1cccnc1Nc1nc2cc(C(=O)Nc3ccc4cn[nH]c4c3)c(N3CCN(C)CC3)cc2[nH]1` [Example 58, 6-(4-Methyl-piperazin-1-yl)-2-(3-methyl-pyridin-2-ylamino)-1H-benzimidazole-5-carboxylic acid (1H-indazol-6-yl)-amide] was ≤ 3000 nM.
In the case of `Cc1cccnc1Nc1nc2cc(C(=O)Nc3ccc4cn[nH]c4c3)c(N3CCOCC3)cc2[nH]1` [Example 60, 2-(3-Methylpyridin-2-ylamino)-6-morpholin-4-yl-1H-benzimidazole-5-carboxylic acid (1H-indazol-6-yl)-amide], the IC50 in experiment [2] was ≤ 3000 nM.
`CCc1cccc(CC)c1Nc1nc2cc(C(=O)Nc3ccc4cn[nH]c4c3)ccc2[nH]1` [Example 91, 2-(2,6-diethylphenylamino)-3H-benzimidazole-5-carboxylic acid (1H-indazol-6-yl)-amide]: in experiment [1] (erlotinib 50 mg/kg), the “complete responders (CR, 100% reduction in tumor size)” value is given as 0/8 and the “partial responders (PR, greater than 50% reduction in tumor size)” value is on record as 0/8.
For the molecule `Nc1ccn([C@@H]2O[C@H](CO)[C@@H](O)C2(F)F)c(=O)n1` [Gemcitabine, reference compound], the “Median Tumor Size” value stood at 120 mg in experiment [3] (setting [4]); 144 mg in experiment [3] (day 10 of study); 144 mg in experiment [3] (day 13 of study); 153 mg in experiment [3] (day 16 of study); 221 mg in experiment [3] (day 20 of study); 246 mg in experiment [3] (day 23 of study). Further, the “Median Tumor Size” value in experiment [3] (day 27 of study) is 336 mg; in experiment [3] (day 30 of study), 472 mg; in experiment [3] (day 34 of study), 675 mg; in experiment [3] (day 37 of study) it was 824 mg; in experiment [3] (day 42 of study), 988 mg. Moreover, the “inhibition of tumor growth relative to vehicle-treated tumors” value in experiment [3] (day 23, Example 88 10 mg/kg, gemcitabine 120 mg/kg) came to 60%. In addition, in experiment [3] (setting [5]), the “complete responders (CR, 100% reduction in tumor size)” value is 0/8. The “partial responders (PR, greater than 50% reduction in tumor size)” value in experiment [3] (setting [5]) is 0/8.

Source of the values: patent US8377983B2, “Benzazole derivatives, compositions, and methods of use as aurora kinase inhibitors” (TransTech Pharma, Inc., priority 2006, dated 2013).
